According to PMC3740188 (Protein & cell, 2013):

Assays:
Type in all cases: binding
[1] = biological target: T1, AT cpn-β (thermosome cpn-β) (Acidianus tengchongensis, UniProt Q877H2); experiment: nucleotide-induced oligomer assembly by native PAGE; conditions: 2 mM nucleotide, 20 mM MgCl2, pH 7.5, 37 °C, 8 h
T1 sequence (Q877H2 1-553): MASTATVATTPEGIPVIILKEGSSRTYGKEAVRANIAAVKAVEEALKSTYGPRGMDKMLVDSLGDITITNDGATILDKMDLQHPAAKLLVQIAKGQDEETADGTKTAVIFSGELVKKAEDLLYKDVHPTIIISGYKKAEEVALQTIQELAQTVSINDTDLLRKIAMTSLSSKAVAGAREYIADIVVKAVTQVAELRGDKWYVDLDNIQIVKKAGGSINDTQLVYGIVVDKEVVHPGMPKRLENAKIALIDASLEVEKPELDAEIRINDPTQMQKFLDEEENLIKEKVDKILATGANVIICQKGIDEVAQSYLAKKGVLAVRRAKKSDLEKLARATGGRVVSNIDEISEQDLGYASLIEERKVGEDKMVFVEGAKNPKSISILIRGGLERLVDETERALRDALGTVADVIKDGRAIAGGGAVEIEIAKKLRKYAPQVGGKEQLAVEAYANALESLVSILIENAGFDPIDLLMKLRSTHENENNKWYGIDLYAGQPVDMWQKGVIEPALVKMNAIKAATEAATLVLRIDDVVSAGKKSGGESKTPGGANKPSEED

[2] = biological target: T2, AT cpn-α (thermosome cpn-α) (Acidianus tengchongensis, UniProt Q877H0); experiment: as above; conditions: 2 mM nucleotide, 20 mM MgCl2, pH 7.5, 37 °C, 8 h
T2 sequence (Q877H0 1-563): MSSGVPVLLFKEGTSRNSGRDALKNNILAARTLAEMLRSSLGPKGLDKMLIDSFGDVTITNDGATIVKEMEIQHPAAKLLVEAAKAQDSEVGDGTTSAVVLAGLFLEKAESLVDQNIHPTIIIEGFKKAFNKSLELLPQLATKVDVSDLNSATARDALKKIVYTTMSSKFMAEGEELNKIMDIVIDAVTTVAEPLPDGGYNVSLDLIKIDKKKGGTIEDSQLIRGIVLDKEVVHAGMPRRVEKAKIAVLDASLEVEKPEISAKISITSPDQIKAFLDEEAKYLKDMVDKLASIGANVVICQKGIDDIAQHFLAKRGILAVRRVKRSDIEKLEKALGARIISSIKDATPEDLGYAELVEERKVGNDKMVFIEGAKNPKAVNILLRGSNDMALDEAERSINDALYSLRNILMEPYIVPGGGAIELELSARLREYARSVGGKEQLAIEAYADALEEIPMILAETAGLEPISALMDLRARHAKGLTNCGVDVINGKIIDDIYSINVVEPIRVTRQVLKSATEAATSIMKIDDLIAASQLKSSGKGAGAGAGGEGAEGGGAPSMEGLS

[3] = biological target: T2, AT cpn-α (thermosome cpn-α); experiment: heating […] min then native PAGE of oligomer dissociation; conditions: ADP in place of ATP; pH 7.5, MgCl2
[4] = biological target: T1, AT cpn-β (thermosome cpn-β); experiment: as above; conditions: ADP in place of ATP; pH 7.5, MgCl2
[5] = biological target: T1, AT cpn-β (thermosome cpn-β); experiment: cryo-EM reconstruction with MDFF model; conditions: pH 7.5, 12 mM Mg, 50 mM KCl; 6.2/5.0 Å resolution

SMILES | nucleotide-induced oligomer assembly by native PAGE [1] | nucleotide-induced oligomer assembly by native PAGE [2] | Td [3] | Td [4] | cryo-EM reconstruction with MDFF model [5]
Nc1nc2c(ncn2[C@@H]2O[C@H](COP(=O)(O)OP(=O)(O)OP(=O)(O)O)[C@@H](O)[C@H]2O)c(=O)[nH]1 [GTP] | even GTP could induce the assembly of thermosomes | even GTP could induce the assembly of thermosomes | – | – | –
Nc1ncnc2c1ncn2[C@@H]1O[C@H](COP(=O)(O)OP(=O)(O)O)[C@@H](O)[C@H]1O [ADP] | – | – | ADP binding also increased the thermal stability of cpn-α and cpn-β | ADP binding also increased the thermal stability of cpn-α and cpn-β | –
Nc1ncnc2c1ncn2[C@@H]1O[C@H](COP(=O)(O)OP(=O)(O)OP(=O)(O)O)[C@@H](O)[C@H]1O [ATP] | – | – | – | – | cryoEM reconstructions of cpn-β in the apo or ATP-binding state
Nc1ncnc2c1ncn2[C@@H]1O[C@H](COP(=O)(O)OP(=O)(O)NP(=O)(O)O)[C@@H](O)[C@H]1O [AMP-PNP] | all nucleotides could efficiently induce the assembly of thermosomes for both cpn-α | all nucleotides could efficiently induce the assembly of thermosomes for both cpn-α | – | – | –
